Measurements reported in US20160303095A1, “METHODS OF TREATING HEPATITIS B VIRUS” (Gilead Sciences, Inc., priority 2015, published 2016).
Where two headings read alike, the source gives them in different places.

System: H3K4me3 mark
Assay: Western blot detection of H3K4me3 in HBV-infected PHHs
Assay type: cell-based, human
Conditions: for IC50: Homo sapiens; for chromatin H3K4Me3 mark: PHH from three different donors
Protocol: One million primary human hepatocytes (PHH) cells from three different donors were plated in 6 well collagen coated tissue culture plates in 2.5 ml Plating Media containing William's Medium E supplemented with 1% Penicillin/Streptomycin, 4 μg/mL human recombinant insulin, 2 mM glutamax, 15 mM Hepes, 1 μM dexamethasone and 5% fetal bovine serum (Life Technologies, Cat#A12176-01 Life Technologies, Chicago, Ill.) and incubated for 4-hours at 37° C. Following this incubation the media was changed to Maintenance Media (Cat#CM4000-A15564 Life Technologies, Chicago, Ill.) containing William's Medium E supplemented with 0.5% Penicillin/Streptomycin, 6.25 μg/mL human recombinant insulin, 6.25 μg/mL human transferrin, 6.25 ng/mL selenous acid, 1.25 mg/mL bovine serum albumin, 5.35 μg/mL linoleic acid, 2 mM glutamax, 15 mM Hepes, 0.1 μM dexamethasone, 2% fetal bovine serum, and 2% DMSO (Cat#D2650 Sigma, St. Louis, Mo.). The next day, cells were infected with approximately 500 genome equivalents of HBV clinical isolates 21P (GTA) or AD38 (GTD) per cell in Maintenance Media supplemented with 4% PEG 8000. Small molecule inhibitors targeting KDMs were serially diluted in Maintenance Media and added to cells at 3 days post infection (p.i.). Media with compounds was replenished every 2-3 days. Cells were harvested on day 14 p.i. by scraping the monolayer into ice-cold PBS supplemented with 5 mM Sodium Butyrate and concentrated by centrifugation at 1000×g for 5 minutes at 4° C. The cell pellets were washed twice by re-suspension in PBS and concentrated by centrifugation. The cells were lysed by suspension in Triton Extraction Buffer (TEB: PBS containing 0.5% Triton X 100 (v/v), 2 mM phenylmethylsulfonyl fluoride (PMSF), 0.02% (w/v) NaN3) at a cell density of 10^7 cells per ml and incubated on ice for 10 minutes with gentle stirring. Following centrifugation at 500 g for 10 minutes at 4° C., the supernatants were removed and the pellets were washed in 5×10^7 cells per ml TEB buffer and centrifuged as before. The pellets were re-suspended in 0.2N HCl at a cell density of 4×10^7 cells per ml and the histones were acid extracted overnight at 4° C. Samples were centrifuged at 500 g for 10 minutes at 4° C., the supematants were removed and protein content was determined using the Bradford assay. Histones were separated on a 4-20% gradient SDS gel (Mini protean TGX precast gels from BioRad), and blotted to a Hybond C-extra nitrocellulose membrane (Amersham Biosciences, RPN303E). H3K4me3 and total H3 were detected with a mixture of 1° antibodies (Cat#05-745R Millipore and Cat#14269S Cell Signaling) diluted 1:1000 in 5% skimmed milk powder in PBS containing 0.1% Tween. The western blot was washed 3 times in PBS containing 0.1% tween and incubated with 2° antibodies (Donkey anti-Mouse IRDye at 680LT Cat#926-68022 Licor Odyssey; Donkey anti-Rabbit IRDye at 800CW Cat#96-32213; Licor Odyssey) diluted 1:10000 in 5% skimmed milk powder in PBS containing 0.1% tween 20 for 1 h. Detection of infrared fluorescence was performed on Infrared Fluorescence Imaging System LI-COR. Concentration dependence of H3K4me3/H3 signal was used to calculate IC50 value for induction of H3K4 trimethylation.

[1] = read-out: IC50 (concentration causing a 50% increase in the H3K4me3 mark), Virus 21P (GTA), PHH 4239
[2] = read-out: IC50 (concentration causing a 50% increase in the H3K4me3 mark), Virus 21P (GTA), PHH 8130
[3] = read-out: IC50 (concentration causing a 50% increase in the H3K4me3 mark), Virus 21P (GTA), PHH 8181
[4] = read-out: IC50 (concentration causing a 50% increase in the H3K4me3 mark), Virus AD38 (GTD), PHH 4239
[5] = read-out: IC50 (concentration causing a 50% increase in the H3K4me3 mark), Virus AD38 (GTD), PHH 8130
[6] = read-out: IC50 (concentration causing a 50% increase in the H3K4me3 mark), Virus AD38 (GTD), PHH 8181

## CCOC(=O)c1ccnc(CNCC(=O)N(CC)CCN(C)C)c1 [Example 8]
[1]
  IC50: 30 nM
[2]
  IC50: 1 nM
[3]
  IC50: 70 nM
[4]
  IC50: 30 nM
[5]
  IC50: 3 nM
[6]
  IC50: 50 nM
  chromatin H3K4Me3 mark: increase in the chromatin H3K4Me3 mark in a dose-dependent manner

## CCN(CCN(C)C)C(=O)CNCc1cc(C(=O)O)ccn1 [Example 9]
[1]
  IC50: 60 nM
[2]
  IC50: 130 nM
[3]
  IC50: 100 nM
[4]
  IC50: 10 nM
[5]
  IC50: 130 nM
[6]
  IC50: 130 nM
  chromatin H3K4Me3 mark: increase in the chromatin H3K4Me3 mark in a dose-dependent manner
